The values below come from publication PMC3844181, “Studies of the Interaction between Isoimperatorin and Human Serum Albumin by Multispectroscopic Method: Identification of Possible Binding Site of the Compound Using Esterase Activity of the Protein” (The Scientific World Journal, 2013).

In assay [1] the target is T1, Human serum albumin (HSA) (Homo sapiens, UniProt P02768).
T1 construct: gene ALB; mature serum albumin, 585 residues, monomer
Briefly: ANS fluorescence titration, Scatchard plot. The class given is binding. From the text:
ANS fluorescence titration, Scatchard plot on Human serum albumin (HSA)

Assay [2] deals with T1, Human serum albumin (HSA). In words: 4-nitrophenyl acetate esterase assay. The class given is biochemical. The note with it: 15 μM HSA, 250 μM pNPA, 250 μM compound, site I.
Assay [3] deals with T1, Human serum albumin (HSA). In words: intrinsic Trp fluorescence quenching, modified Stern-Volmer plot. The class given is binding. Particulars: 298 K, 50 mM phosphate pH 7.5, 3 μM HSA, excitation 295 nm; n = 0.862; site I; double-log. From the text:
intrinsic Trp fluorescence quenching, modified Stern-Volmer plot on Human serum albumin (HSA)

T1 sequence (P02768 25-609): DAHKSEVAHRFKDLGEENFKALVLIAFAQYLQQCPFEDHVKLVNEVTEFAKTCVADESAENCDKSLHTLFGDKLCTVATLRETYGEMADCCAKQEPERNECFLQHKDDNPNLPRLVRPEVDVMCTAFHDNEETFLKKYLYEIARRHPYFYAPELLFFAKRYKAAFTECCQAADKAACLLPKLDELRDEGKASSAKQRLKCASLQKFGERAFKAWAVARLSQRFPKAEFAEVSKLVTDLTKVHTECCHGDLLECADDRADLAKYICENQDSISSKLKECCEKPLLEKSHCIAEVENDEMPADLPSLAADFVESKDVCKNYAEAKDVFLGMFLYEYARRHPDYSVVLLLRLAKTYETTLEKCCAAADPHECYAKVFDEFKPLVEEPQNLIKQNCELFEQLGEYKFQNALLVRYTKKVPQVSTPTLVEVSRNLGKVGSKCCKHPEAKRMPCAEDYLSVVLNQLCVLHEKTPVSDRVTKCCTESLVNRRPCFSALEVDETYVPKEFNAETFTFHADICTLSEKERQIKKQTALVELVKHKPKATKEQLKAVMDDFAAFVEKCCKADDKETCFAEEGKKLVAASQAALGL

For `O=S(=O)(O)c1cccc2cccc(Nc3ccccc3)c12` [ANS], in assay [1], binding was characterised by a dissociation constant (Kd) of 900 ± 50 nM. Take `CC(=O)Oc1ccccc1C(=O)O` [aspirin]: the “inhibition of esterase activity” value in assay [2] is “isoimperatorin, aspirin, warfarin, indomethacin, and osthole binding sites on the HSA molecule are the same”. Consider `CC(C)=CCOc1c2ccoc2cc2oc(=O)ccc12` [isoimperatorin, 4-[(3-methyl-2-butenyl)oxy]-7H-furo [3,2-g] [1] benzopyran-7-one], for which, in assay [3], the “10^-5 × K b (M^-1)” value was “(11.02 ± 0.10) × 10^5 M^-1”. Besides, the “inhibition of esterase activity” value in assay [2] (competitive) was “warfarin and indomethacin (as site I marker) and isoimperatorin inhibited competitively the HSA-catalyzed hydrolysis”. With `COc1ccc2ccc(=O)oc2c1CC=C(C)C` [osthole], the “inhibition of esterase activity” value in assay [2] was “isoimperatorin, aspirin, warfarin, indomethacin, and osthole binding sites on the HSA molecule are the same”.
